We go through five compounds from ChEMBL document CHEMBL1144106, “Highly oxygenated pseudopterane and cembranolide diterpenes from the Caribbean sea feather Pseudopterogorgia bipinnata” (1999).

The structures appear in SMILES notation. Activity calls are given as the source filed them. The rule behind the calls is not given here.

One may read the GI50 as the concentration at which growth is held to half of that of the control. Read a low GI50 as more potent growth inhibition.

Experiment [1] has as its system Mycobacterium tuberculosis. Nature of the experiment: Antituberculosis activity against Mycobacterium tuberculosis H37Rv at 12.5 ug/mL. Type of experiment: functional, organism-based.
For another experiment, the system named is CCRF-CEM. Nature of the experiment: Cytotoxicity against human CCRF-CEM cells. Type of experiment: functional.

As to `C=C(C)[C@@H]1C[C@H]2O[C@](O)(C/C(C)=C\C(=O)/C=C(/C)C[C@@H]3OC(=O)[C@]24O[C@@H]34)[C@H]1O`, the outcome in experiment [1] was inactive.
The same measure, in the same setting: with `C=C(C)[C@H]1C2=CC(C)=C(O2)[C@@H](O)[C@H](C(=C)C)CCC2=C[C@H]1OC2=O` the entry was “inactive”.
As to `C=C(C)[C@H]1C(=O)[C@H]2O[C@@]2(C)C(=O)[C@@H](O)[C@H](C(=C)C)CCC2=C[C@H]1OC2=O`, in experiment [1], the result was inactive.
Turning to `C=C(C)[C@@H]1CCC2=C[C@H](C/C(C)=C\C3=CC(C)=C(O3)[C@H]1O)OC2=O`, the outcome in experiment [1] was inactive.
Compound `C=C(C(=O)OC)[C@@H]1C[C@@H](OC(C)=O)C2=C[C@H](C[C@@]3(C)O[C@@H]3C3=CC(C)=C(O3)[C@H]1OC(C)=O)OC2=O` [BIPINNATIN I] gave a GI50 in the experiment on CCRF-CEM of 42.7 nM.
